“Also recorded” adds a separate entry of the source.
B1: uricase: recombinant enzyme uricase (Fasturtec, Sanofi Synthelabo), degrades uric acid into soluble allantoin (protein, UniProt Q00511 2-302, looked up)
Uricase: SAVKAARYGKDNVRVYKVHKDEKTGVQTVYEMTVCVLLEGEIETSYTKADNSVIVATDSIKNTIYITAKQNPVTPPELFGSILGTHFIEKYNHIHAAHVNIVCHRWTRMDIDGKPHPHSFIRDSEEKRNVQVDVVEGKGIDIKSSLSGLTVLKSTNSQFWGFLRDEYTTLKETWDRILSTDVDATWQWKNFSGLQEVRSHVPKFDATWATAREVTLKTFAEDNSASVQATMYKMAEQILARQQLIETVEYSLPNKHYFEIDLSWHKGLQNTGKNAEVFAPQSDPNGLIKCTVGRSSLKSKL

What was measured:
[1] = system: bleomycin-induced lung inflammation; assay: Bleomycin-induced acute lung inflammation in mice (24 h); type: in vivo; conditions: for Neutrophil recruitment in BALF / IL-1β production in lung: allopurinol 25 mg/kg s.c.; for Neutrophil recruitment in BALF: uricase 0.2 mg/kg (0, 6, 9 h) or z-YVAD-fmk 10 mg/kg i.p. (0, 4, 8 h); for Bleomycin-induced (acute) inflammation, overall: 24 h after BLM i.n., treated vs vehicle; for KC production in lung / TIMP-1 production in lung / IL-1β production in lung: lung homogenates 24 h after BLM 10 mg/kg i.n.; for KC production in lung / TIMP-1 production in lung: allopurinol 25 mg/kg s.c. or z-YVAD-fmk 10 mg/kg i.p.; for IL-1β production in lung: uricase 0.2 mg/kg or z-YVAD-fmk 10 mg/kg i.p.; for Uric acid levels in lung: allopurinol 25 mg/kg s.c. or uricase 0.2 mg/kg i.p. or i.n. at 0, 6 and 9 h; for Efficacy, repeated administrations versus higher doses: dose optimisation
Protocol: (§1) Bleomycin sulfate (200-300 μg or 10-15 mg/kg) from Bellon Laboratories (Montrouge, France) in saline, uric acid or allopurinol crystals (100-1000 μg or 5-50 mg/kg) in saline or saline alone are given through the airways by nasal instillation in a volume of 40 μt, under light ketamine-xylasine anaesthesia. The number of cells, chemokines, cytokines and TIMP-1 in the bronchoalveolar space and in the lung were evaluated as described (3). Allopurinol (Sigma-Aldrich) was injected at 500 μg or 25 mg/kg subcutaneously in 0.1-ml sterile NaCl, uricase (Fasturtec, Sanofi Synthelabo) given at 4 μg or 0.2 mg/kg by nasal instillation in 40 μt, at the time of bleomycin administration, at 6 and 9 h. In some experiments, the IL-1Ra (Anakinra, Amgen) was injected at 200 μg or 10 mg/kg subcutaneously in 0.1-ml sterile NaCl, at the time of MSU crystals administration, at 2 and 4 h.
(§2) Bleomycin sulfate (10 mg/kg) from Bellon Laboratories, uric acid or allopurinol crystals (5-50 mg/kg) in saline or vehicle alone were administered by intranasal instillation under light ketamine-xylasine anesthesia, and BAL and lung tissue assayed after 6 h (for uric acid crystal) or 24 h (for bleomycin) for markers of inflammation including cell recruitment and in particular neutrophil influx, chemokine and cytokine levels including KC, IL-6 and IL-1β and 14 days later for markers of tissue remodeling such as gelatinases MMP9 and MMP2 and their inhibitor TIMP-1. […] IL-1Ra (Anakinra, Amgen) was injected at 10 mg/kg subcutaneously.
(§3) After incision of the trachea, a plastic cannula was inserted and airspaces were washed using […] of PBS solution, heated to 37° C. The rib cage was then gently massaged to enable maximum cell collection. The fluid was collected by careful aspiration. […] The samples collected were dispatched in 2 fractions: the first one (1 ml corresponding to the 2 first lavages) was used for mediator measurement and the second one for the cell determination (4 ml). The first fraction was centrifuged (600 g for 10 min) and supernatant was fractionated and kept at −80° C. until mediator determination. The cell pellet was then resuspended in 0.4 ml PBS and, pooled with the second fraction and maintained at 4° C. until cell determination.
After BAL was performed, the whole lung removed and placed inside a microtube (Lysing matrix D, Q Bio Gene, Illkrich, France) with 1 ml of PBS, total lung tissue extract was prepared using a Fastprep® system (FP120, Q Bio Gene, Illkrich, France), the extract was then centrifuged and the supernatant stored at −80° C. before mediator measurement, MPO or collagen assay with Sircol Collagen Assay (France Biochem Division, France).
(§4) Total cell count was determined in BAL fluid using a particle counter (Z2 Coulter, Beckman Coulter). Differential cell counts were performed on cytospin preparations (Cytospin 3, Thermo Shandon) after staining with 4 min May-Grünwald stain (MG-1L, Sigma chemical, Saint Louis, USA) and 8 min in 95% Giemsa stain (GS-500, Sigma chemical, Saint Louis, USA). Differential cell counts were made on 100 cells using standard morphological criteria.
(§5) IL-1β, KC, IL-6 and TIMP-1 levels in BAL fluid or lung homogenate were determined using ELISA assay kits according to manufacturer's instructions (Mouse DuoSet, R&D system, Minneapolis, USA).
Uric acid concentration was determined in bronchoalveolar lavages and lung homogenates using Amplex® Red Uric Acid/Uricase Assay Kit (Molecular Probe, Eugene). Briefly, uricase catalyzes the conversion of uric acid to allantoin, hydrogen peroxide (H2O2) and carbon dioxide. In the presence of horseradish peroxidase (HRP), H2O2 reacts stoichiometrically with Amplex Red reagent to generate the red-fluorescent oxidation product, resorufin, measured spectrophotometrically.

[2] = system: lung inflammation upon intranasal crystals; assay: Exogenous uric acid crystals-induced lung inflammation and remodeling in mice; type: in vivo
Protocol: as §1
Uric acid or allopurinol crystals were obtained by dissolving 1.68 mg of powder in 0.01 M NaOH preheated to 70° C. and added as required to maintain pH between 7.1 and 7.2. The solution was filtered and incubated at room temperature under slowly and continuously agitation, until crystals have formed. Crystals were washed twice with ethanol 100%, dried, autoclaved and kept sterile. The weight of dry crystals was determined under sterile conditions, crystals are resuspended in PBS by sonication and examined under phase microscopy.
as §2, §3, §4, §5

[3] = system: bleomycin-induced repair and fibrosis; assay: Bleomycin-induced late inflammation, repair and fibrosis in mice (day 8/14); type: in vivo; conditions: for Lung fibrotic score (fibrosis with thickening of alveolar septae and inflammation, semi-quantitative) / Alveolar wall destruction, collagen deposition and lung fibrosis on lung sections / Pro-MMP-9 and active MMP-2 gelatinase activities in BALF (zymography) / Pulmonary alpha-I collagen mRNA content: day 14 after BLM 5 mg/kg i.n.; for Lung fibrotic score (fibrosis with thickening of alveolar septae and inflammation, semi-quantitative): Ashcroft score, two observers, vs B6 mice; for Alveolar wall destruction, collagen deposition and lung fibrosis on lung sections: CAB staining; for Pro-MMP-9 and active MMP-2 gelatinase activities in BALF (zymography): allopurinol 15 mg/kg s.c. or uricase 0.2 mg/kg i.p.; for Pulmonary alpha-I collagen mRNA content: real time quantitative PCR
Protocol: Mice were injected at day 0 with allopurinol (15 mg/kg, s.c.), uricase (0.2 mg/kg, i.p.) or saline, at 0, 6 and 9 h after BLM instillation (5 mg/kg, i.n.) and every second days during 8 or 14 days to evaluate remodeling and fibrosis. (A) Late inflammation measured as lymphocytes and neutrophils in the BALF at day 8. […] (D) Alpha1 (I) collagen I mRNA in lung was analyzed by real time quantitative polymerase chain reaction (PCR) amplification after uricase or allopurinol treatment 14 days after BLM administration. […] Chromotrope Aniline Blue (CAB) staining, 20× and 200× magnification. (F) The lesions induced by bleomycin were assessed semi-quantitatively by two pathologists as described (see Materials and methods). […] Results are expressed as mean lung fibrotic score±SD. Data represent mean values±SD from 3 independent experiments (n=6 mice per group).
as §2, §5
MMP-2 and MMP-9 levels were determined by gelatin zymography. Briefly, non-reduced supernatant samples of BAL fluid (15 μl) and standards (161-0305, Bio-Rad, Hercule, USA) were loaded onto 7% polyacrylamide gels (wt/vol) incorporating 0.1% (wt/vol) gelatin substrate. The MMP in the gelatinolytic bands were evaluated using as references recombinant murine Pro-MMP-9 (100 Kd) and recombinant murine Pro-MMP-2 (72 Kd). Proteins were subjected to electrophoresis at 20-30 mA for 3 h. The gel was then washed twice in 2.5% Triton (vol/vol), rinsed 3 times quickly with distillated water, and placed 3 times for 20 min in distillated water. Each different wash was performed under gentle stirring. Gels were incubated overnight at 37° C. in 50 mM Tris buffer (containing 5 mM CaCl2 and 2 μM ZnCL2). […] Only these MMP were quantified.
Quantification of alpha-I collagen was described previously (26). Briefly, frozen lung samples were ground to a fine powder, and homogenized in 2 ml of Trizol reagent (In vitrogen Life technology, Paisley, UK). After vigorous shaking, chloroform was added and the samples were centrifuged at 12,000 g for 20 min. Total RNA was precipitated with isopropanol and dissolved in RNAse-free water. RNAs were reverse-transcribed into cDNA using SuperScript™^II (Invitrogen Life technologies, Paisley, UK). Real-time quantitative PCR was performed by fluorescent dye SYBR Green methodology, using SYBR Green PCR Master Mix (Applied Biosystems) and the ABI Prism 7000 apparatus (perkin-Elmer, Foster city, CA, USA).
After BAL and lung perfusion, the large lobe was fixed in 4% buffered formaldehyde for standard microscopic analysis. 3-μm sections were stained with Hematoxylin and Eosin (H&E) or Chromotrope Aniline Blue (CAB) as described previously (3). The severity of the morphological changes (infiltration by neutrophils and mononuclear cells, destruction and thickening of the alveolar septae and fibrosis) were assessed semi-quantitatively using a numeric fibrotic scale (Ashcroft score) (27).

[4] = system: bleomycin-induced lung inflammation; conditions: IL-1 receptor antagonist; published data (ref. 3), FIG. 1; cited from earlier work
[5] = 24 h after BLM 10 mg/kg i.n., vs vehicle
[6] = crystals 15 mg/kg i.n., kinetics

Row | Molecule | Neutrophil recruitment in BALF [1, 5] | Bleomycin-induced (acute) inflammation, overall [1] | KC production in lung ([1]; vs vehicle) | TIMP-1 production in lung ([1]; vs vehicle) | IL-1β production in lung ([1]; vs vehicle) | Lung fibrotic score (fibrosis with thickening of alveolar septae and inflammation, semi-quantitative) [3] | Alveolar wall destruction, collagen deposition and lung fibrosis on lung sections [3] | Pro-MMP-9 and active MMP-2 gelatinase activities in BALF (zymography) [3] | Pulmonary alpha-I collagen mRNA content [3] | Uric acid levels in lung [1, 5] | Efficacy, repeated administrations versus higher doses ([1]; data not shown) | other results
1 | z-YVAD-fmk | reduced | reduced | reduced | reduced | reduced | – | – | – | – | – | – | –
2 | O=c1[nH]c(=O)c2[nH]c(=O)[nH]c2[nH]1 [uric acid crystals, uric acid] | – | – | – | – | – | – | – | – | – | – | – | Time at which inflammation was resolved [2, 6]: 14 days; Time of maximum of inflammation (cell recruitment in BALF) [2, 6]: 6 h; Pulmonary TIMP-1 at day 14 ([2]; day 14 after crystals, data not shown): returned to basal levels; Cell recruitment in BALF (macrophages, neutrophils) ([2]; intranasal crystals, dose response): dose-dependent cell recruitment; Pulmonary TIMP-1 ([2]; lung homogenates after i.n. increasing doses of crystals): induced pulmonary TIMP-1 expression; also recorded: dose-dependently induced
3 | Oc1ncnc2[nH]ncc12 [allopurinol] | reduced | greatly inhibited | diminished | diminished | diminished | significantly reduced | significantly reduced | significantly reduced and less | inhibited | prevented the increase; also recorded: prevented uric acid increases | repeated administrations were more effective than higher doses | Late lymphocyte and neutrophil recruitment in the BALF ([3]; day 8 after BLM 5 mg/kg i.n., allopurinol 15 mg/kg s.c. at 0, 6, 9 h and every second day): reduced; Late production of TIMP-1 in lung homogenates and BALF ([3]; day 8 after BLM 5 mg/kg i.n., allopurinol 15 mg/kg s.c., BALF data not shown): inhibited; Total cell counts in BALF ([1]; 24 h after BLM 10 mg/kg i.n., allopurinol 25 mg/kg s.c. at 0, 6 and 9 h, vs vehicle): reduced; IL-1β, KC and TIMP-1 in the BALF ([1]; after BLM, allopurinol treatment, data not shown): diminished; KC production in lung ([1]; vs vehicle, listed as Allopurinol): reduced
4 | Oc1ncnc2[nH]ncc12 [allopurinol crystals, allopurinol] | – | – | – | – | – | – | – | – | – | – | – | Neutrophil recruitment into the BALF ([2]; 6 h after crystals instillation 15 mg/kg i.n.): only little neutrophil recruitment
5 | Anakinra: IL-1 receptor antagonist, IL-1Ra (Anakinra, Amgen) | – | – | – | – | – | – | – | – | – | – | – | Bleomycin-induced lung inflammation, overall [4]: attenuated; Inflammatory response to uric acid crystals (neutrophil influx in BAL) ([2]; 6 h after UA crystals 15 mg/kg i.n., anakinra 10 mg/kg): drastically reduced
6 | B1 | reduced | – | – | – | reduced | significantly reduced | significantly reduced | significantly reduced and less | inhibited | reduced | repeated administrations were more effective than higher doses | –

Reference: patent US8569017B2, “Method for the preventing and/or treating IL-1 beta lung pathology in mammals by administering a uric acid reducing compound” (Centre National de la Recheche Scientifique (CNRS), priority 2008, dated 2013)
